In data set [1] the test system is atopic dermatitis. Description: Topical vitamin D cream in eczema / atopic dermatitis patients, case reports (Examples 1-6). The settings on record: for effect of prior treatment on itch / effect of prior treatment on redness: prior treatments of the Example 3 patient, per parent. The text has this: Person, diagnosed with atopic dermatitis. […] Prior treatments consisted of:
We apply the cream after bathing, before bedtime, and during the night, when needed for itching. […]
Adult […]. […] A vitamin D (400 IU/g) cream was applied. […]

Data set [2] concerns lesions from atopic dermatitis. The following applies: five patients; calcipotriol 50 ug/g and maxacalitriol 25 ug/g, ointment; cited from earlier work.
Data set [3] has as its system phosphate transport. The settings on record: cited from earlier work; for influence of presence or absence of luminal Ca on phosphate transport: vascular perfusion, 65 pM 1,25-dihydroxyvitamin D3 or 6.5 nM 24,25-dihydroxyvitamin D3.
Data set [4] has as its system phosphate metabolism. The settings on record: Cross and Peterlik 1981; cited from earlier work.
Data set [5] has as its system pruritus. Description: Dose response of pruritus scores against vitamin D concentration (the FIGURE). The settings on record: topical application; read from the dose response graph. Format: in vivo, human. The text has this: The FIGURE is a graph illustrating the dose response experimental data in terms of pruritus scores on the vertical scale and a vitamin D concentration in international units per gram (IU/g) on the horizontal scale, with up to four different timing parameters represented by adjacent differentiated bars for each concentration. Pruritus relief is the fastest observed benefit after topical application of our claimed formulations. The graph below indicates an effective concentration as low as 50 IU/g. This is also an indication of bioavailability of vitamin D and therefore an indication of the lowest effective concentration for the treatment of additional symptoms of eczema.

For `CC1(C)O[C@@H]2C[C@H]3[C@@H]4CCC5=CC(=O)C=C[C@]5(C)[C@H]4[C@@H](O)C[C@]3(C)[C@]2(C(=O)CO)O1` [Desonide 0.5%, Desonide], in data set [1], the “effect of prior treatment on itch” value was “gives itch relief” and the “effect of prior treatment on redness” value is “reduces redness”.

As for `C=C1/C(=C\C=C2/CCC[C@]3(C)[C@@H]([C@H](C)OCCC(C)(C)O)CC[C@@H]23)C[C@@H](O)C[C@@H]1O` [maxacalitriol], the “effect on lesions from atopic dermatitis” value in data set [2] is given as “improvement of lesions”.

As to `Cl.OCCOCCN1CCN(C(c2ccccc2)c2ccc(Cl)cc2)CC1` (stereo not drawn) [Hydroxyz Hcl 10 mg], in data set [1] (human, in vivo), the “sleepiness under prior treatment” value is “made their sleepy”. Moreover, the “effect of prior treatment on itch” value in data set [1] is listed as “did not help”.

With `C=C1/C(=C\C=C2/CCC[C@]3(C)[C@@H]([C@H](C)CCCC(C)(C)O)CC[C@@H]23)C[C@@H](O)C[C@@H]1O` [1,25-dihydroxyvitamin D3], in data set [3], the “influence of presence or absence of luminal Ca on phosphate transport” value was “did not influence”.

Regarding `C=C1CC[C@H](O)C/C1=C/C=C1\CCC[C@]2(C)[C@@H]([C@H](C)CCCC(C)(C)O)CC[C@@H]12` [25-hydroxyvitamin D3], the “stimulation of phosphate transport relative to the normal concentration (100 nM)” value in data set [3] (subnormal concentration (20 nM)) is recorded as “much higher rates”. For the same molecule, in data set [3] (vascular perfusion with 100 nM 25-hydroxyvitamin D3), the “phosphate transport, luminal Ca present” value was “stimulated”.

Consider `C=C1CC[C@H](O)C/C1=C/C=C1\CCC[C@]2(C)[C@@H]([C@H](C)CCCC(C)C)CC[C@@H]12` [vitamin D, cholecalciferol], for which the “activity with respect to phosphate metabolism” value in data set [4] is reported as “active”. Besides, the “lowest effective concentration for pruritus relief” value in data set [5] was 50 IU/g.

On to `CC(=O)OCC(=O)[C@@]12OC(C)(C)O[C@@H]1C[C@H]1[C@@H]3C[C@H](F)C4=CC(=O)C=C[C@]4(C)[C@@]3(F)[C@@H](O)C[C@@]12C` [Fluocinonide 0.05%, Fluocinonide], for which the “effectiveness of prior treatment” value in data set [1] (prior treatment of the Example 5 patient, self-reported) is “fairly effective”.

For the molecule `CCCCC(=O)O[C@]1(C(=O)CO)CC[C@H]2[C@@H]3CCC4=CC(=O)CC[C@]4(C)[C@H]3[C@@H](O)C[C@@]21C` [Hydrocort Val 02%], in data set [1], the “effect of prior treatment on itch” value is given as “did not help” and the “effect of prior treatment on redness” value is “did not help”.

For `C=C1/C(=C\C=C2/CCC[C@]3(C)[C@@H]([C@H](C)/C=C/[C@@H](O)C4CC4)CC[C@@H]23)C[C@@H](O)C[C@@H]1O` [calcipotriol], the “effect on lesions from atopic dermatitis” value in data set [2] is recorded as “improvement of lesions”.

As to `C=C1CCC(O)C/C1=C\C=C1\CCCC2(C)C1CCC2C(C)CCC(O)C(C)(C)O` (stereo not drawn) [24,25-dihydroxyvitamin D3], in data set [3], the “influence of presence or absence of luminal Ca on phosphate transport” value is listed as “did not influence”.

These data come from US20100081637A1, “Eczema treatment with vitamin D and analogs thereof method, composition and cream” (Innovia Skincare Corp., priority 2008, published 2010).
